Assay results taken from US10137141B2, “Treatment regimen tiacumicin compound” (priority 2014, dated 2018).
≈ marks a conversion by molar mass, not a printed value. Entries after “also recorded” stand apart in the source; their conditions may differ. Like-named read-outs stand apart in the source and are kept apart here.

What was measured:
CDI [1] = conditions: two Phase III trials; cited from earlier work
[2] = low solubility, low permeability; cited from earlier work
[3] = system: C. difficile PCR ribotype 027; assay: In vitro gut model of CDI (three-stage chemostat): C. difficile viable counts, spore counts, cytotoxin titre; format: cell-based, Clostridium difficile; conditions: both tapered dosing regimens (Model C and D)
Method: Two 3-stage chemostat gut models were inoculated with pooled faeces (n=5). […] […] 5 days post treatment in the short course model, a further 5 days fidaxomicin pulse was given. CD total viable counts (TVC), spore counts (SP), toxin titres (CYT), and gut bacteria were measured throughout. Data were also compared with results for FDX given for 7 days (model 7).
(§1) Two tests in a validated three-stage compound continuous culture system (Freeman J, O'Neill F J, Wilcox M H. The effects of cefotaxime and desacetylcefotaxime upon Clostridium difficile proliferation and toxin production in a triple-stage chemostat model of the human gut. J Antimicrob Chemother 2003; 52: 96-102; Baines S D, Freeman J, Wilcox M H. Effects of piperacillin/tazobactam on Clostridium difficile growth and toxin production in a human gut model. J Antimicrob Chemother 2005; 55: 974-82) were run in parallel. Models were inoculated with pooled faecal slurry (10% in anaerobic distilled water) from healthy volunteers (n=5, age >60 yrs).
The continuous culture system consisted of three vessels, V1, V2, and V3, with respective operating volumes of 0.22, 0.32, and 0.32 L (FIG. 1). Temperature (37° C.) and pH were automatically controlled to reflect the proximal-distal colon. Culture pH in the three vessels was 5.5, 6.2, and 6.8, respectively. Each fermentor was magnetically stirred and maintained under an atmosphere of CO2. The growth medium was continuously sparged with O2-free N2 and fed by peristaltic pump to V1. V1 sequentially supplied V2 and V3 via a series of weirs. The culture medium consisted of the following constituents (g liter-1) in distilled water: starch (BDH Ltd.), 5.0; pectin (citrus), 2.0; guar gum, 1.0; mucin (porcine gastric type III), 4.0; xylan (oatspelt), 2.0; arabinogalactan (larch wood), 2.0; inulin, 1.0; casein (BDH Ltd.), 3.0; peptone water, 5.0; tryptone, 5.0; bile salts No. 3, 0.4; yeast extract, 4.5; FeSO4 z 7H2O, 0.005; NaCl, 4.5; KCl, 4.5; KH2PO4, 0.5; MgSO4 z 7H2O, 1.25; CaCl2 z 6H2O, 0.15; NaHCO3, 1.5; cysteine, 0.8; hemin, 0.05; Tween 80, 1.0 The system was initially operated at a retention time (R) of 27.1 h (experiment 1), followed by an increase to R=66.7 h (experiment 2). Retention time was calculated as the reciprocal of dilution rate. System retention constitutes the sum of individual R values in each fermentor. Minimum doubling times of bacteria were calculated as 0.693/D, where D is the dilution rate (h−1) for each culture vessel. Each fermentor was inoculated with 100 ml of a fresh 10% (w/v) fecal slurry from a healthy, nonmethane producing donor. […] Steady-state conditions were assessed by monitoring short-chain fatty acid (SCFA) formation. […]

Bifidobacteria [4] = assay: In vitro gut model: gut microflora by selective culture, Bifidobacteria; format: cell-based
Method: Two 3-stage chemostat gut models were inoculated with pooled faeces (n=5). […] Models were then treated with fidaxomicin (200 mg/L bd) for 20 or 5 d to achieve in vivo gut levels. 5 days post treatment in the short course model, a further 5 days fidaxomicin pulse was given. CD total viable counts (TVC), spore counts (SP), toxin titres (CYT), and gut bacteria were measured throughout. Data were also compared with results for FDX given for 7 days (model 7).
as §1, with “Models were inoculated with pooled faecal slurry (10% in anaerobic distilled water) from healthy volunteers (n=5, age >60 yrs).” left out
(§2) The continuous culture system consisted of three vessels, V1, V2, and V3, with respective operating volumes of 0.22, 0.32, and 0.32 L (FIG. 1). […] Retention time was calculated as the reciprocal of dilution rate. […] Minimum doubling times of bacteria were calculated as 0.693/D, where D is the dilution rate (h−1) for each culture vessel. […] Steady-state conditions were assessed by monitoring short-chain fatty acid (SCFA) formation. […]

Clostridium species = conditions: in vitro; cited from earlier work
[5] = some previous fidaxomicin dosing regimens; cited from earlier work
[6] = system: C. difficile PCR ribotype 027; conditions: cited from earlier work
[7] = oral administration; cited from earlier work
C. difficile = assay: MIC against C. difficile; format: cell-based, Clostridium difficile; conditions: Clostridioides difficile
CDI [8] = assay: Expected clinical outcome of the new dosing regimens (proposed clinical study); format: in vivo, patients; conditions: expected benefit of the dosing regimens of the invention
enterococci = assay: In vitro gut model: gut microflora by selective culture, enterococci; format: cell-based; conditions: both dosing regimens (Model C and D)
From the text: as §1
as §2, with “1). Temperature (37° C.) and pH were automatically controlled to reflect the proximal-distal colon. Culture pH in the three vessels was 5.5, 6.2, and 6.8, respectively. Each fermentor was magnetically stirred and maintained under an atmosphere of CO2.” for “1).”

[9] = system: C. difficile infections (CDI); conditions: cited from earlier work
[10] = Antimicrobial concentration (bioassay) in the in vitro gut model
Method: The continuous culture system consisted of three vessels, V1, V2, and V3, with respective operating volumes of 0.22, 0.32, and 0.32 L (FIG. 1). Temperature (37° C.) and pH were automatically controlled to reflect the proximal-distal colon. Culture pH in the three vessels was 5.5, 6.2, and 6.8, respectively. Each fermentor was magnetically stirred and maintained under an atmosphere of CO2. The growth medium was continuously sparged with O2-free N2 and fed by peristaltic pump to V1. V1 sequentially supplied V2 and V3 via a series of weirs. […] Retention time was calculated as the reciprocal of dilution rate. […] Minimum doubling times of bacteria were calculated as 0.693/D, where D is the dilution rate (h−1) for each culture vessel. […] Steady-state conditions were assessed by monitoring short-chain fatty acid (SCFA) formation. […]

Bifidobacteria [11] = conditions: both dosing regimens (Model A and Model B); cited from earlier work
[12] = Model A: fidaxomicin 200 mg/L bd for 20 d

## CCc1c(Cl)c(O)c(Cl)c(O)c1C(=O)O[C@H]1[C@H](O)[C@H](OC)[C@H](OC/C2=C\C=C\C[C@H](O)/C(C)=C/[C@H](CC)[C@@H](O[C@@H]3OC(C)(C)[C@@H](OC(=O)C(C)C)[C@H](O)[C@@H]3O)/C(C)=C/C(C)=C/C[C@@H]([C@@H](C)O)OC2=O)O[C@@H]1C [fidaxomicin, 3-[[[6-deoxy-4-O-(3,5-dichloro-2-ethyl-4,6-dihydroxybenzoyl)-2-O-methyl-β-D-mannopyranosyl]oxy]methyl]-12(R)-[[6-deoxy-5-C-methyl-4-O-(2-methyl-1-oxopropyl)-β-D-lyxo-hexopyranosyl]oxy]-11(S)-ethyl-8(S)-hydroxy-18(S)-(1(R)-hydroxyethyl)-9,13,15-trimethyloxacyclooctadeca-3,5,9,13,15-pentaene-2-one]
CDI [1]
  Initial clinical cure of CDI versus vancomycin: non-inferiority
  Reduction of recurrence and sustained clinical response versus vancomycin: superiority
[2]
  BCS (Biopharmaceutics Classification System) class: Class IV
[3]
  Reduction of C. difficile viable counts to below the level of detection: ~6 log10 cfu/mL
  Reduction of spore counts to below the level of detection: ~4 log10 cfu/mL
  Reduction of toxin titres to below the level of detection: 3 RU
  Time to reduce C. difficile viable counts, spore counts and toxin titres to below the level of detection: < 3 days
Bifidobacteria [4]; both dosing regimens (Model C and D)
  Declines in Bifidobacteria to limit of detection: 6-8 log10 cfu/mL
Bifidobacteria [4]; both models (C and D), by the end of the experiment
  Recovery of Bifidobacteria populations: recovered to near pre-installation counts; also recorded: recovered to close to pre-fidaxomicin levels
Clostridium species
  MIC values compared with optically pure S-isomer of tiacumicin B and other tiacumicin related compounds: lower MIC values
[5]
  Persistence of fidaxomicin: 20 mg/L
[6]; [12]
  CD TVC reduced to the limit of detection (LOD) by day: ≤ 5 days
  CYT (toxin titre) reduced to the limit of detection (LOD) by day: ≤ 7 days
[6]; Model B: 200 mg/L bd 5 d, still detectable on day 5 of treatment
  Reduction of CD TVCs: ~4 log10 cfu/mL
[6]; Model B: 5 d, 5 d rest, further 5 d pulse
  TVC and SP after second 5 days fidaxomicin pulse: decreased TVC and SP to LOD
[7]
  Absorption from the intestinal tract: poorly absorbed
C. difficile
  MIC: 0.25 µg/mL (≈ 0.236 µM)
CDI [8]
  Recurrence: below 5%
enterococci
  Declines in enterococci: 2-5 log10 cfu/mL
[9]; 18 courses of fidaxomicin in 14 patients (FID-TX, FID-CH, FID-TP)
  Courses resulting in treatment success: 18 courses
[9]; FID-CH: 10-day fidaxomicin chaser, 8 courses, excluding RCDI due to antimicrobial exposure
  RCDI: 25%
[9]; FID-CH
  Average symptom-free interval (SFI): 240 days
[9]; FID-TP: taper 200 mg daily 7 days then 200 mg QOD 7-26 days, 7 courses
  RCDI: no RCDI
[9]; FID-TP
  Average symptom-free interval (SFI): 150 days
[9]; FID-TX: 200 mg BID for 10 days, 3 courses
  RCDI episodes: 66%
[9]; FID-TX
  Average symptom-free interval (SFI): 73 days
[10]; dosing regimens i and ii
  Persistence of fidaxomicin at supra MIC level: 2 to 5 µg/mL
[10]; human
  Peak fidaxomicin concentration: ~100 mg/L
Bifidobacteria [11]
  Decrease of bifidobacteria to below LOD: 6-8 log10 cfu/mL
  Recovery of bifidobacteria: did not recover

## CN[C@H](CC(C)C)C(=O)N[C@H]1C(=O)N[C@@H](CC(N)=O)C(=O)N[C@H]2C(=O)N[C@H]3C(=O)N[C@H](C(=O)N[C@H](C(=O)O)c4cc(O)cc(O)c4-c4cc3ccc4O)[C@H](O)c3ccc(c(Cl)c3)Oc3cc2cc(c3O[C@@H]2O[C@H](CO)[C@@H](O)[C@H](O)[C@H]2O[C@H]2C[C@](C)(N)[C@H](O)[C@H](C)O2)Oc2ccc(cc2Cl)[C@H]1O [vancomycin]
[9]; following a vancomycin taper
  Average symptom-free interval (SFI): 37 days
